{"source": "patent US20200338115A1", "about": "“PHARMACEUTICAL COMPOSITION FOR PREVENTION OF RECURRENT URINARY TRACT INFECTION” (priority 2019, published 2020)", "key": {"[1]": {"settings": "orally administered PPS, previous studies; cited from earlier work"}, "[2]": {"system": "peripheral WBC count", "test": "Rat UTI model, low-dose PPS (Example 3): peripheral WBC count percentages", "format": "in vivo, SD rats", "settings": "8.5 mg/kg/day oral Day −14 to Day 0", "excerpt": "(§1) The purpose of the current example is to investigate effects of a reduced dosage of PPS for preventing UTI in the rat URI model. The SD rats are randomized and grouped into a control group (N=7), an UTI model group (N=10), a normal PPS dosage group (N=10), and a reduced PPS dosage group (N=5). The UTI model group, the normal PPS dosage group, and the reduced PPS dosage group are infected with UPEC on Day 1. The method of infection and the amount of UPEC being injected to the rats of the current study are the same as the UPEC infection in Example 1. […] The control group is not infected by the UPEC or treated by PPS. Urine samples and the blood samples of the rats are collected on Day 0, 3, and 7, using the same techniques and tools as described in Example 1. The collected urine samples are diluted 10, 10^2, 10^3, 10^4, and 10^5 folds, and the diluted urine samples are cultured on BSA plates and incubated for 12 hours at 37° C. UPEC colonies on the BSA plates are counted after the incubation. In FIGS. 10 and 11, the UTI model group is denoted as “UTI”, the normal PPS dosage group is denoted as “UROpre”, and the reduced PPS dosage group is denoted as “low UROpre”.\nFIG. 11 is a bar chart comparing the peripheral WBC count percentages of the control group, the reduced PPS dosage group, and the UTI model group, in accordance with an embodiment of the present disclosure. The WBC counts reflects a current urinary tract infection episode, the WBC count percentage can be a relative indicator comparing the WBC counts before the infection and after the infection. The WBC count percentages in FIG. 11 are used to examine the efficacy of the reduced PPS dosage in the rat UTI model. The WBC counts on Day 0 in the control group, the reduced PPS dosage group, and the UTI group are designated as 100% in FIG. 11. The WBC count percentages of the 3 groups are elevated on Day 1, reflecting more WBCs entering the peripheral blood after the infection. On Day 3, the WBC count percentage of the low UROpre group is about 120%, whereas the WBC count percentage of the UTI group is about 130%."}, "[3]": {"system": "uropathogenic Escherichia coli (UPEC)", "test": "Rat UTI model, low-dose PPS (Example 3): urine bacterial counts", "format": "in vivo, SD rats", "settings": "for urine bacterial counts compared with UTI model group: Day 3", "excerpt": "as §1"}, "[4]": {"system": "TNF-α", "test": "Rat UTI model (Example 1): Luminex assay of peripheral blood TNF-α", "format": "in vivo, Sprague-Dawley (SD) rats", "settings": "PPS 30 mg/kg/day oral Day −14 to Day 0; Day 3 and Day 14", "excerpt": "(§2) UPEC is known as the primary cause of UTI.\n(§3) The rats are sacrificed at Day 14.\n(§4) Luminex assays are used to evaluate peripheral blood biomarkers relevant to infection or inflammation. FIG. 6 is a bar chart comparing the Luminex assay results for IL-1β in the control group, the UTI model group, and the PPS prevention group, in accordance with an embodiment of the present disclosure. IL-1β level is relevant to a current inflammation or infection, and a higher IL-1β level indicates a more severe inflammation. […] FIG. 7 is a bar chart comparing the Luminex assay results for TNF-α in the control group, the UTI model group, and the PPS prevention group, in accordance with an embodiment of the present disclosure. TNF-α is a cytokine that promotes inflammatory responses, and a higher TNF-α level indicates a more severe inflammation in the rats."}, "[5]": {"system": "uropathogenic Escherichia coli (UPEC)", "test": "Rat UTI model (Example 1): urine bacterial counts after oral PPS", "format": "in vivo, Sprague-Dawley (SD) rats", "excerpt": "as §2, §3"}, "[6]": {"system": "recurrent urinary tract infection (rUTI)", "test": "Phase II randomized controlled trial of oral PPS for prevention of rUTI (Example 2): efficacy", "format": "in vivo, human subjects", "excerpt": "The current example is a multicenter, prospective, open-label, phase II, randomized controlled trial. The purpose of the current example is to investigate the effects of orally administered PPS in the prevention of rUTI in the human subjects. The study period of the current trial is 16 weeks, which is expected to cover most of the rUTI episodes.\nThe human subjects in the current example are screened and recruited in the OPD. Eligible patients are 20-70 year-old female patients with confirmed UTI ≥2 times in the past 6 months, or ≥3 times in the past 12 months, and had prior antibiotics treatment for previous UTI episodes(s). The eligible patients are without lower urinary tract symptoms and completely recovered from the last UTI episode. Patients with the following criteria are also excluded: allergic reaction to PPS, undergoing surgery within 24 week in a follow-up period of the current trial, participating in any intervention study 90 days before screening, bladder instillation with hyaluronic acid within 3 months before screening, pregnancy, breast feeding, upper urinary tract infection, fever >38° C., serum WBC count greater than 12,000/mm^3, urinary catheterization within 1 week, urinary tract anomalies, interstitial cystitis, urolithiasis, renal insufficiency, cancer history, immunocompromised, organ transplant history, pelvic organ prolapse stage II or higher, post-voiding residual urine more than 100 ml, stress or urge urinary incontinence, and positive urine culture during screening. 45 patients are screened for eligibility, with only 27 patients remained and 18 patients are excluded. The screening in the current trial is defined as Visit 1.\nFor analyzing results of the current study, all statistical analyses are performed using MedCalc Statistical Software version 19.0.3. The Mann-Whitney U test and Student's t-test are used to compare medians and means, respectively. Contingency tables are constructed for comparisons using a chi-square test and Fisher's exact test. The Kaplan—Meier method is used for the construction of survival curves. A log-rank test and Cox proportional hazard model are used to compare recurrence-free survival duration between groups. All tests are 2-tailed. A P-value <0.05 is considered significant."}, "[7]": {"system": "IL-1β", "test": "Rat UTI model (Example 1): Luminex assay of peripheral blood IL-1β", "format": "in vivo, Sprague-Dawley (SD) rats", "settings": "PPS 30 mg/kg/day oral Day −14 to Day 0; Day 3", "excerpt": "as §2, §3, §4"}, "[8]": {"settings": "pH 6; cited from earlier work"}, "[9]": {"system": "peripheral white blood cell (WBC) counts", "test": "Rat UTI model (Example 1): peripheral white blood cell counts", "format": "in vivo, Sprague-Dawley (SD) rats", "settings": "PPS 30 mg/kg/day oral Day −14 to Day 0", "excerpt": "as §2, §3\nFIG. 4 is a bar chart comparing peripheral white blood cell (WBC) counts in the control group, the UTI model group, and the PPS prevention group, in accordance with an embodiment of the present disclosure. The WBC counts in different groups reflect conditions of the UPEC infection in the rats: a higher WBC count may represent a more severe UPEC infection. […] The WBC counts in the UTI model group have remained as the highest among 3 groups on Day 1, Day 3, and Day 7."}, "[10]": {"system": "peripheral red blood cell (RBC) counts", "test": "Rat UTI model (Example 1): peripheral red blood cell counts", "settings": "PPS 30 mg/kg/day oral Day −14 to Day 0; control, UTI model and PPS prevention groups", "description": "The current example treats Sprague-Dawley (SD) rats with uropathogenic Escherichia coli (UPEC) to establish the rat UTI model. […] The UPEC used in the current example is ATCC®700336™, designation: J96 (serotype O4:K6), purchased from Food Industry Research and Development Institute of Taiwan. The UPEC is stored in trypticase soy agar/broth, and is centrifuged at 5,000 rpm for 10 minutes. Pellets of the UPEC after the centrifugation are dissolved in 10 mL sterile phosphate buffered saline (PBS). The cell density of the UPEC is adjusted to an optical density (OD600) of 1 to 1.1. This optical density is corresponded to the cell density of 8×10^7 to 2×10^8 colony forming units (CFU)/mL. The UPEC is then made into a 250 μL 0.9% N/S solution of 8×10^7 CFU for treating the rats.\nThe UTI model group and the PPS prevention group are infected with the UPEC by trans-urethral catherization on Day 1. The PPS prevention group is treated with the PPS by oral gavage with a 18G stainless-steel gavage needle attached to a 3 mL tuberculin syringe from Day −14 to Day 0. The PPS dosage for the rats in the current example is 30 mg/kg/day. […] The UPEC in the LB broths and on the LB agar plates are quantified after the incubation. […]"}, "[11]": {"system": "bladder epithelium", "test": "Rat UTI model (Example 1): H/E staining of bladder tissue", "format": "in vivo, Sprague-Dawley (SD) rats", "settings": "PPS 30 mg/kg/day oral Day −14 to Day 0; rats sacrificed at Day 14", "excerpt": "as §2, §3"}, "[12]": {"settings": "in vivo", "description": "The 27 patients remained are randomized to a PPS group (N=13) and a control group (N=14). The PPS are orally administered to the PPS group according to a continuous daily dosing regimen of 100 mg, 3 times a day for the first 8 weeks (total administered amount is 300 mg PPS per day). Then, the dosing regimen is changed to 100 mg 2 times a day for the remaining 8 weeks (total administered amount is 200 mg PPS per day). The PPS can be taken either 1 hour before or 2 hours after meal. Any forms of UTI prophylaxis or treatment, including antibiotics, hyaluronic acid instillation, cranberry, nonsteroidal anti-inflammatory drugs, or steroids, are forbidden in the study period of the current trial. […] The patients in both groups are visited every four week from the 0th week (Visit 2), the 4th week (Visit 3), the 8th week (Visit 4), the 12th week (Visit 5), to the 16th week (Visit 6), and Visit 6 is marked as the end of the current trial.\nThe patients are required to report relevant urinary tract symptoms to an investigator, during each of the visits. […] Information regarding adverse events, including grade of severity (according to National Cancer Institute Common Terminology Criteria for Adverse Events, version 5.0), timing, and their relationship with the medication assessed by the investigator, are also recorded at each of the visits. […]"}}, "data": [{"substance": "pentosan polysulfate sodium [PPS]", "values": [{"measurement": "adverse effect: abdominal pain", "setting": "[1]", "value": 2, "unit": "%"}, {"measurement": "adverse effect: diarrhea", "setting": "[1]", "value": "1-14.9%"}, {"measurement": "adverse effect: dizziness", "setting": "[1]", "value": 1, "unit": "%"}, {"measurement": "adverse effect: dyspepsia", "setting": "[1]", "value": 2, "unit": "%"}, {"measurement": "adverse effect: headache", "setting": "[1]", "value": "1-2.9%"}, {"measurement": "adverse effect: liver function abnormalities", "setting": "[1]", "value": "1-2%"}, {"measurement": "adverse effect: nausea", "setting": "[1]", "value": "1.4%-7.9%"}, {"measurement": "adverse effect: rash", "setting": "[1]", "value": 3, "unit": "%"}, {"measurement": "adverse effect: rectal hemorrhage", "setting": "[1]", "value": 4, "unit": "%"}, {"measurement": "peripheral WBC count percentage (Day 0 = 100%)", "setting": "[2]; Day 1", "value": "elevated"}, {"measurement": "peripheral WBC count percentage (Day 0 = 100%)", "setting": "[2]; Day 3, UTI group about 130%", "value": "about 120%"}, {"measurement": "peripheral WBC count percentage (Day 0 = 100%)", "setting": "[2]; Day 7", "value": "about 60%"}, {"measurement": "peripheral WBC count percentage compared with UTI group", "setting": "[2]; Day 7", "value": "significantly lower than that of the UTI group"}, {"measurement": "therapeutic effect in the rat UTI model", "setting": "[3]; 8.5 mg/kg/day orally administered PPS, 14 days", "value": "therapeutically effective"}, {"measurement": "urine bacterial counts compared with UTI model group", "setting": "[3]; normal PPS dosage 30 mg/kg/day oral Day −14 to Day 0 (UROpre)", "value": "lower than the UTI model group"}, {"measurement": "urine bacterial counts compared with UTI model group", "setting": "[3]; reduced PPS dosage 8.5 mg/kg/day oral Day −14 to Day 0 (low UROpre)", "value": "lower than the UTI model group"}, {"measurement": "peripheral TNF-α levels compared with UTI model group", "setting": "[4]", "value": "lower TNF-α levels than the UTI model group"}, {"measurement": "urine bacterial counts compared with UTI model group", "setting": "[5]; PPS 30 mg/kg/day oral Day −14 to Day 0, UPEC on Day 1, Day 1, Day 3 and Day 7", "value": "lower than the urine bacterial counts in the UTI model group"}, {"measurement": "urine bacterial counts", "setting": "[5]; PPS 30 mg/kg/day oral gavage Day −14 to Day 0, Day 0", "value": "below 10^3 CFU/mL"}, {"measurement": "overall effect on UTI in the rats", "setting": "[5]; PPS oral 30 mg/kg/day for 14 days", "value": "effectively reduces UTI"}, {"measurement": "overall UTI recurrence free survival compared with control group (Kaplan-Meier)", "setting": "[6]; 26 patients, log-rank test p=0.0004", "value": "significantly higher in the PPS group than in the control group"}, {"measurement": "UTI recurrence, %", "setting": "[6]; PPS group N = 12, 300 mg/day for 8 weeks then 200 mg/day for 8 weeks, oral, 16 weeks, control 64.3%, p <0.001", "value": 0, "unit": "%"}, {"measurement": "lower urinary tract symptoms or positive urine analysis", "setting": "[6]; PPS group, 16-week study period", "value": "none of the patients in the PPS group had lower urinary tract symptoms nor positive urine analysis"}, {"measurement": "efficacy in preventing rUTI in the human subjects", "setting": "[6]; about 3.34 mg/kg/day, total 200 mg PPS per day, remaining 8 weeks", "value": "also therapeutically effective"}, {"measurement": "efficacy in preventing rUTI in the human subjects", "setting": "[6]; less than 5 mg/kg/day, total 300 mg PPS per day (reference weight 60 kg), first 8 weeks", "value": "proven to be therapeutically effective"}, {"measurement": "protective effect in preventing rUTI in the human subjects", "setting": "[6]; oral administration of PPS, conclusion of the trial", "value": "excellent protective effect"}, {"measurement": "peripheral IL-1β level compared with UTI model group", "setting": "[7]", "value": "significantly lower than the UTI model group"}, {"measurement": "solubility in water", "setting": "[8]", "value": "up to 50%"}, {"measurement": "peripheral WBC counts compared with UTI model group", "setting": "[9]; Day 1, Day 3 and Day 7", "value": "fewer than the WBC counts in the UTI model group"}, {"measurement": "peripheral WBC counts, time course", "setting": "[9]; after Day 3", "value": "in steady decline after Day 3"}, {"measurement": "peripheral RBC counts, difference among groups", "setting": "[10]", "value": "no significant differences"}, {"measurement": "H/E staining result of bladder tissue", "setting": "[11]", "value": "fresh layer of accumulated epithelial cells"}, {"measurement": "adverse effects observed in the trial", "setting": "[12]", "value": "none of the above adverse effects are observed"}, {"measurement": "complete blood counts, liver function tests and coagulant-related tests", "setting": "[12]", "value": "no abnormalities"}]}]}
